ChEMBL document CHEMBL1132438, “Heterodimeric tacrine-based acetylcholinesterase inhibitors: investigating ligand-peripheral site interactions” (J Med Chem, 1999)

Key:
Acetylcholinesterase = biological target: T1, Acetylcholinesterase (Rattus norvegicus, UniProt P37136); assay: biochemical
T1 sequence (P37136 whole entry): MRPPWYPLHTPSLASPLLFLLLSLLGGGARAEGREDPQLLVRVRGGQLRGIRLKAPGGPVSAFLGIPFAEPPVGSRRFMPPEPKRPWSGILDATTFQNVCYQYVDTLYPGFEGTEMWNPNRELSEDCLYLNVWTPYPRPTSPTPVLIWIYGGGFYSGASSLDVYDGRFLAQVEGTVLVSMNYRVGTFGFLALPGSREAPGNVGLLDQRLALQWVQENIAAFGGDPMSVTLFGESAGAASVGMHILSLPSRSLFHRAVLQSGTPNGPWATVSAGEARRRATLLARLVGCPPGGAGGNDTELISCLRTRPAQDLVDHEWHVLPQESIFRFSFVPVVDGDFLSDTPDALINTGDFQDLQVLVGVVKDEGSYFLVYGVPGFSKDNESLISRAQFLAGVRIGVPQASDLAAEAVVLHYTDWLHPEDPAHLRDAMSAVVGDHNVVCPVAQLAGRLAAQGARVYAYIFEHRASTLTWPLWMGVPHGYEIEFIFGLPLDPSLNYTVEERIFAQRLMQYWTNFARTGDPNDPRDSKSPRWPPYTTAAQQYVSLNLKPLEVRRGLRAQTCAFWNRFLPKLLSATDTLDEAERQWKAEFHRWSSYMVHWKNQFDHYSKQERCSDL
Description: Inhibition of acetylcholinesterase activity in rat cerebral cortex homogenate, in the presence of a specific butyrylcholinesterase (BChE) inhibitor; ethopropazine

Butyrylcholinesterase = Butyrylcholinesterase (Rattus norvegicus, UniProt Q9JKC1)
Butyrylcholinesterase, sequence (Q9JKC1 whole entry): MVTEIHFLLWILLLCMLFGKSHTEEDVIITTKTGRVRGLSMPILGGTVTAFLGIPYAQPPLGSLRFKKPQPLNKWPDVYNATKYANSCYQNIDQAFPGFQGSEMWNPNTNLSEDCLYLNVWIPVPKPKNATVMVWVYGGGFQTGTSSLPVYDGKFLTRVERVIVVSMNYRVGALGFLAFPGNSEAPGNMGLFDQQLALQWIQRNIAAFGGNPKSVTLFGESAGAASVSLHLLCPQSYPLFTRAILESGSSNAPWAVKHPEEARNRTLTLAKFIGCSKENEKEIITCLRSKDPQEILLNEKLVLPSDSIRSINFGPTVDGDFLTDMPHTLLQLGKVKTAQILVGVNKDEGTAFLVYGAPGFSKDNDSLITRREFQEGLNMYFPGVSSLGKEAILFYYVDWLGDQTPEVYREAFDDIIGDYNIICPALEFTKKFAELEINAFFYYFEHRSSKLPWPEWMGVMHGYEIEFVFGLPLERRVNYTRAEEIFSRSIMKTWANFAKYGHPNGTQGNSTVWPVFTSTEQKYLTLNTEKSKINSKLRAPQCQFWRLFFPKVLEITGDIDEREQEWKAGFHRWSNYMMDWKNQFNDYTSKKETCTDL
Description: Inhibition of rat serum butyrylcholinesterase, in the presence of a specific AChE inhibitor; BW284c51

Row | Compound | IC50 (Acetylcholinesterase) [µM] | IC50 (Butyrylcholinesterase) [µM]
1 | CN(C)CCCCCCCCCCCCNc1c2c(nc3ccccc13)CCCC2 | 0.264 | 0.695
2 | CN(C)CCCCCCCCCCNc1c2c(nc3ccccc13)CCCC2 | 0.045 | 0.581
3 | NCCCCCCCNc1c2c(nc3ccccc13)CCCC2 | 0.319 | 0.357
4 | NCCCCCCCCCCNc1c2c(nc3ccccc13)CCCC2 | 0.147 | 0.682
5 | CN(C)CCCCCCCCNc1c2c(nc3ccccc13)CCCC2 | 0.047 | 0.17
6 | c1ccc2c(NCCCCCCCNc3ccncc3)c3c(nc2c1)CCCC3 | 0.0128 | 0.302
7 | c1ccc2c(NCCCCCCCCNc3c4c(nc5ccccc35)CCCC4)ccnc2c1 | 0.0088 | 0.126
8 | CN(C)CCCCCCCCCNc1c2c(nc3ccccc13)CCCC2 | 0.071 | 0.237
9 | c1ccc2c(NCCCCCCCCCCCCNc3ccncc3)c3c(nc2c1)CCCC3 | 0.261 | 0.377
10 | CN(C)CCCCCCCNc1c2c(nc3ccccc13)CCCC2 | 0.052 | 0.143
11 | c1ccc2c(NCCCCCCCCCNc3ccncc3)c3c(nc2c1)CCCC3 | 0.0836 | 0.2
12 | c1ccc2c(NCCCCCCCCNc3ccncc3)c3c(nc2c1)CCCC3 | 0.0136 | 0.157
13 | c1ccc2c(NCCCCCCCCCCNc3ccncc3)c3c(nc2c1)CCCC3 | 0.176 | 0.427
14 | c1ccc2c(NCCCCCCCCCNc3c4c(nc5ccccc35)CCCC4)ccnc2c1 | 0.0387 | 0.156
15 | NCCCCCCCCCCCCNc1c2c(nc3ccccc13)CCCC2 | 0.18 | 0.791
16 | NCCCCCCCCNc1c2c(nc3ccccc13)CCCC2 | 0.0894 | 0.202
17 | c1ccc2c(NCCCCCCCNc3c4c(nc5ccccc35)CCCC4)ccnc2c1 | 0.0101 | 0.11
18 | NCCCCCCCCCNc1c2c(nc3ccccc13)CCCC2 | 0.131 | 0.687
19 | Cc1cccc2c(NCCCCCCCNc3c4c(nc5ccccc35)CCCC4)c3c(nc12)CCCC3 | 0.0015 | 
20 | Cc1cccc2c(NCCCCCCCCNc3c4c(nc5ccccc35)CCCC4)c3c(nc12)CCCC3 | 0.0078 | 0.105
21 | Nc1ccncc1 [DALFAMPRIDINE] | > 500 | 
22 | Nc1ccnc2ccccc12 [QUINOLIN-4-AMINE] | 50.7 | 
